# Laboratory results reported in patent publication US8017767B2, “Sucralose composition” (Tate & Lyle Public Limited Company, priority 2000, dated 2011).
# Assay: Accelerated stability test (50° C.) with pH stability test of sucralose sample solution
# Type: physicochemical
# Settings: for Days to pH Failure / Ph Stability / Days to pH Failure (Final Product Moisture Content) / Days to pH Failure (Initial Moisture Content): 50° C.; for Days to pH Failure: WHIRLPAK polyethylene bags, failure = pH drop ≧1.0; for Initial pH difference: sample solution vs pH-adjusted water at time zero; for Initial pH: sample solution (5 g in 50 ml pH-adjusted water) at time zero; for Days to pH Failure (Final Product Moisture Content): final dried product; for Days to pH Failure (Final Product Moisture Content) / Days to pH Failure (Initial Moisture Content): Example 3; for Days to pH Failure (Initial Moisture Content): partially dried product at intermediate (initial) moisture content; for stability at intermediate moisture contents compared with final moisture levels: crystallized with no pH control, intermediate moisture 3 to 5% vs final 0.05, 0.11, 0.21%
# Text: Label seven 6 oz. and seven 18 oz. WHIRLPAK® polyethylene bags with indelible marker for each batch being tested for stability. Accurately weigh 25 g±0.01 g of sucralose into each 6 oz. WHIRLPAK® polyethylene bag. Heat or impulse seal the 6 oz. bag to ensure air tightness. Cut off any excess polyethylene at the top of the bag above the seal. Place the 6 oz. sealed bag into the 18 oz. bag and heat or impulse seal the 18 oz. bag to ensure air tightness. Roll down the top of the 18 oz. bag above the seal and bend the metal ties to form hooks.
# Place the prepared bags into an oven stabilized at 50° C.±0.5° C. by hanging them from racks by the bag hooks. The bags must be freely suspended and not touch anything. Record the time samples are placed into the oven.
# The pH stability test is conducted on the sucralose at time zero (the day the samples are placed in the oven, before the sucralose is exposed to elevated temperature) and every 24 hours until the batch being tested fails the test.
# Place approximately 100 ml of deionized water into a 150 ml beaker. Using 0.1 N hydrochloric acid and/or 0.1 N sodium hydroxide, adjust the pH of the water to be between 5.8 and 6.0. Record the pH reading.
# Accurately weigh 5 g±0.001 g of the product to be tested and transfer it to a 50 ml volumetric flask. Dissolve and bring to the mark by adding pH-adjusted water. If the sample to be tested is one that has been exposed to heat, remove one bag of the batch being tested from the oven and allow it to cool to room temperature before opening and sampling.
# Pour the solution into a 100 ml beaker containing a stir bar, and slowly stir the solution on a magnetic stirrer. Immerse the pH electrode in the sample, allow the pH reading to stabilize, and record the pH reading of the sample. If no pH drop is observed after all the bags have been tested, the experiment is void and the test must repeated with a larger number of bags.
# Record (to one decimal place) the pH of both the pH-adjusted water used and the sample sucralose solution. Subtract the pH of the […]. Report the result as (−) for a pH drop and (+) for a pH gain, e.g.:
# The sample fails the test if there is a pH drop of 1.0 pH unit or more. The pH stability of the batch is defined as the number of days until the pH drop between the sample solution and that of the pH adjusted water is ≧1.0.
# Samples of sucralose were tested for stability using the above procedures, but using bags of different moisture permeability. All other experimental details were the same. The TYVEK®/polyethylene bags are permeable; the WHIRLPAK® bags are less permeable. The A8080 bag consists of aluminum foil laminated to low-density polyethylene, which makes it very impermeable to moisture.
# [1] = Example 2, pH at crystallizer varied
# [2] = Example 1, sodium acetate in mother liquor varied
# [3] = (−) pH drop, (+) pH gain, Example 1
Structure (SMILES),Days to pH Failure [1] [Days],Initial pH difference [1],Days to pH Failure [2] [Days],Initial pH [2],Initial pH difference [3],also measured
"OC[C@H]1O[C@H](O[C@]2(CCl)O[C@H](CCl)[C@@H](O)[C@@H]2O)[C@H](O)[C@@H](O)[C@H]1Cl [Sample 45, 4,1′,6′-trichloro-4,1′,6′-trideoxy-galactosucrose]",7,+0.17,–,–,–,–
"OC[C@H]1O[C@H](O[C@]2(CCl)O[C@H](CCl)[C@@H](O)[C@@H]2O)[C@H](O)[C@@H](O)[C@H]1Cl [Sample 21, 4,1′,6′-trichloro-4,1′,6′-trideoxy-galactosucrose]",–,–,6,6.05,+0.10,–
"OC[C@H]1O[C@H](O[C@]2(CCl)O[C@H](CCl)[C@@H](O)[C@@H]2O)[C@H](O)[C@@H](O)[C@H]1Cl [Sample 5, 4,1′,6′-trichloro-4,1′,6′-trideoxy-galactosucrose]",–,–,6,5.64,−0.28,–
"OC[C@H]1O[C@H](O[C@]2(CCl)O[C@H](CCl)[C@@H](O)[C@@H]2O)[C@H](O)[C@@H](O)[C@H]1Cl [Sample 23, 4,1′,6′-trichloro-4,1′,6′-trideoxy-galactosucrose]",–,–,5,6.12,+0.13,–
"OC[C@H]1O[C@H](O[C@]2(CCl)O[C@H](CCl)[C@@H](O)[C@@H]2O)[C@H](O)[C@@H](O)[C@H]1Cl [Sample 18, 4,1′,6′-trichloro-4,1′,6′-trideoxy-galactosucrose]",–,–,6,6.00,+0.07,–
"OC[C@H]1O[C@H](O[C@]2(CCl)O[C@H](CCl)[C@@H](O)[C@@H]2O)[C@H](O)[C@@H](O)[C@H]1Cl [Sample 47, 4,1′,6′-trichloro-4,1′,6′-trideoxy-galactosucrose]",–,–,–,–,–,"Ph Stability (package A8080 (aluminum foil laminated to low-density polyethylene), impermeable): 33 days; Ph Stability (package FF 91 TYVEK/Polyethylene, very permeable): 4 days"
"OC[C@H]1O[C@H](O[C@]2(CCl)O[C@H](CCl)[C@@H](O)[C@@H]2O)[C@H](O)[C@@H](O)[C@H]1Cl [Sample 43, 4,1′,6′-trichloro-4,1′,6′-trideoxy-galactosucrose]",5,+0.29,–,–,–,Days to pH Failure (Final Product Moisture Content): 5 Days; Days to pH Failure (Initial Moisture Content): 8 Days
"OC[C@H]1O[C@H](O[C@]2(CCl)O[C@H](CCl)[C@@H](O)[C@@H]2O)[C@H](O)[C@@H](O)[C@H]1Cl [Sample 32, 4,1′,6′-trichloro-4,1′,6′-trideoxy-galactosucrose]",3,−0.90,–,–,–,stability at intermediate moisture contents compared with final moisture levels: less stable at intermediate moisture contents (3 to 5%) than they were at their final moisture levels
"OC[C@H]1O[C@H](O[C@]2(CCl)O[C@H](CCl)[C@@H](O)[C@@H]2O)[C@H](O)[C@@H](O)[C@H]1Cl [Sample 4, 4,1′,6′-trichloro-4,1′,6′-trideoxy-galactosucrose]",–,–,6,5.64,−0.28,–
"OC[C@H]1O[C@H](O[C@]2(CCl)O[C@H](CCl)[C@@H](O)[C@@H]2O)[C@H](O)[C@@H](O)[C@H]1Cl [Sample 8, 4,1′,6′-trichloro-4,1′,6′-trideoxy-galactosucrose]",–,–,5,5.19,−0.73,–
"OC[C@H]1O[C@H](O[C@]2(CCl)O[C@H](CCl)[C@@H](O)[C@@H]2O)[C@H](O)[C@@H](O)[C@H]1Cl [Sample 27, 4,1′,6′-trichloro-4,1′,6′-trideoxy-galactosucrose]",–,–,6,5.99,+0.03,–
"OC[C@H]1O[C@H](O[C@]2(CCl)O[C@H](CCl)[C@@H](O)[C@@H]2O)[C@H](O)[C@@H](O)[C@H]1Cl [Sample 33, 4,1′,6′-trichloro-4,1′,6′-trideoxy-galactosucrose]",4,−0.94,–,–,–,stability at intermediate moisture contents compared with final moisture levels: less stable at intermediate moisture contents (3 to 5%) than they were at their final moisture levels
"OC[C@H]1O[C@H](O[C@]2(CCl)O[C@H](CCl)[C@@H](O)[C@@H]2O)[C@H](O)[C@@H](O)[C@H]1Cl [Sample 16, 4,1′,6′-trichloro-4,1′,6′-trideoxy-galactosucrose]",–,–,6,6.20,+0.27,–
"OC[C@H]1O[C@H](O[C@]2(CCl)O[C@H](CCl)[C@@H](O)[C@@H]2O)[C@H](O)[C@@H](O)[C@H]1Cl [Sample 40, 4,1′,6′-trichloro-4,1′,6′-trideoxy-galactosucrose]",7,+0.40,–,–,–,Days to pH Failure (Final Product Moisture Content): 7 Days; Days to pH Failure (Initial Moisture Content): 13 Days
"OC[C@H]1O[C@H](O[C@]2(CCl)O[C@H](CCl)[C@@H](O)[C@@H]2O)[C@H](O)[C@@H](O)[C@H]1Cl [Sample 36, 4,1′,6′-trichloro-4,1′,6′-trideoxy-galactosucrose]",5,+0.04,–,–,–,Days to pH Failure (Final Product Moisture Content): 5 Days; Days to pH Failure (Initial Moisture Content): 7 Days
"OC[C@H]1O[C@H](O[C@]2(CCl)O[C@H](CCl)[C@@H](O)[C@@H]2O)[C@H](O)[C@@H](O)[C@H]1Cl [Sample 1, 4,1′,6′-trichloro-4,1′,6′-trideoxy-galactosucrose]",–,–,6,5.72,−0.20,–
"OC[C@H]1O[C@H](O[C@]2(CCl)O[C@H](CCl)[C@@H](O)[C@@H]2O)[C@H](O)[C@@H](O)[C@H]1Cl [Sample 34, 4,1′,6′-trichloro-4,1′,6′-trideoxy-galactosucrose]",3,−1.03,–,–,–,stability at intermediate moisture contents compared with final moisture levels: less stable at intermediate moisture contents (3 to 5%) than they were at their final moisture levels
"OC[C@H]1O[C@H](O[C@]2(CCl)O[C@H](CCl)[C@@H](O)[C@@H]2O)[C@H](O)[C@@H](O)[C@H]1Cl [Sample 38, 4,1′,6′-trichloro-4,1′,6′-trideoxy-galactosucrose]",6,+0.17,–,–,–,Days to pH Failure (Final Product Moisture Content): 6 Days; Days to pH Failure (Initial Moisture Content): 23 Days
"OC[C@H]1O[C@H](O[C@]2(CCl)O[C@H](CCl)[C@@H](O)[C@@H]2O)[C@H](O)[C@@H](O)[C@H]1Cl [Sample 3, 4,1′,6′-trichloro-4,1′,6′-trideoxy-galactosucrose]",–,–,6,5.44,−0.48,–
"OC[C@H]1O[C@H](O[C@]2(CCl)O[C@H](CCl)[C@@H](O)[C@@H]2O)[C@H](O)[C@@H](O)[C@H]1Cl [Sample 30, 4,1′,6′-trichloro-4,1′,6′-trideoxy-galactosucrose]",–,–,5,5.95,−0.02,–
"OC[C@H]1O[C@H](O[C@]2(CCl)O[C@H](CCl)[C@@H](O)[C@@H]2O)[C@H](O)[C@@H](O)[C@H]1Cl [Sample 14, 4,1′,6′-trichloro-4,1′,6′-trideoxy-galactosucrose]",–,–,6,5.95,+0.02,–
